Source: paper PMC8286840, “Identifying SARS-CoV-2 antiviral compounds by screening for small molecule inhibitors of Nsp3 papain-like protease” (Biochemical Journal, 2021)
Structures can show the parent of a compound that is named as a salt. Where two headings read alike, the source gives them in different places.

What was measured:
[1] = target: T1, SARS-CoV-2 PLpro (nsp3 1564–1878) (Severe acute respiratory syndrome coronavirus 2, UniProt P0DTD1); experiment: biochemical; set-up: FRET-quenched peptide (Pro3) cleavage by PLpro, 10 min pre-incubation, slope over 20 min, normalised to no-compound control; conditions: read-out: % of control remaining
[2] = target: T1, SARS-CoV-2 PLpro (nsp3 1564–1878); experiment: biochemical; set-up: FRET-quenched peptide (Pro3) cleavage by PLpro, 10 min pre-incubation, slope over 20 min, normalised to no-compound control; conditions: read-out: % of control remaining; remark: listed apart in the source

## COc1ccc(OC)c([C@@H](O)[C@H](C)N)c1 [Methoxamine hydrochloride]
[1]; Well no.=980, low concentration screen
  remaining activity at 1.25 µM: 100%
[2]; Well no.=980, high concentration screen
  remaining activity at 3.75 µM: 101%

## CNC(C)Cc1ccccc1OC (stereo not drawn) [Methoxyphenamine (Hydrochloride)]
[1]; Well no.=8577, low concentration screen
  remaining activity at 1.25 µM: 109%
[2]; Well no.=8577, high concentration screen
  remaining activity at 3.75 µM: 105%

## C[N+]1(C)[C@@H]2C[C@@H](OC(=O)[C@H](CO)c3ccccc3)C[C@H]1[C@@H]1O[C@@H]12 [Methscopolamine (bromide)]
[1]; Well no.=8297, low concentration screen
  remaining activity at 1.25 µM: 97.7%
[2]; Well no.=8297, high concentration screen
  remaining activity at 3.75 µM: 96.8%

## CCc1c(C(=O)OC)ncc2[nH]c3cc(OC)c(OC)cc3c12 [Methyl 6,7-dimethoxy-4-ethyl-beta-carboline-3-carboxylate]
[1]; Well no.=703, low concentration screen
  remaining activity at 1.25 µM: 97.5%
[2]; Well no.=703, high concentration screen
  remaining activity at 3.75 µM: 95.4%

## COC(=O)c1cc2c(cn1)[nH]c1ccccc12 [Methyl beta-carboline-3-carboxylate]
[1]; Well no.=607, low concentration screen
  remaining activity at 1.25 µM: 95.4%
[2]; Well no.=607, high concentration screen
  remaining activity at 3.75 µM: 98.2%

## CO[C@]1(CC[C@@H](C)CO[C@@H]2O[C@H](CO)[C@@H](O)[C@H](O)[C@H]2O)O[C@H]2C[C@H]3[C@@H]4CC=C5C[C@@H](O[C@@H]6O[C@H](CO)[C@@H](O[C@@H]7O[C@@H](C)[C@H](O)[C@@H](O)[C@H]7O)[C@H](O)[C@H]6O[C@@H]6O[C@@H](C)[C@H](O)[C@@H](O)[C@H]6O)CC[C@]5(C)[C@H]4CC[C@]3(C)[C@H]2[C@@H]1C [Methyl protodioscin]
[1]; Well no.=6208, low concentration screen
  remaining activity at 1.25 µM: 101%
[2]; Well no.=6208, high concentration screen
  remaining activity at 3.75 µM: 93.7%

## COC(=O)c1ccccc1O [Methyl salicylate]
[1]; Well no.=1716, low concentration screen
  remaining activity at 1.25 µM: 102%
[2]; Well no.=1716, high concentration screen
  remaining activity at 3.75 µM: 101%

## COc1ccc([C@@H]2CC(=O)c3c(O)cc(O[C@@H]4O[C@H](CO[C@@H]5O[C@@H](C)[C@H](O)[C@@H](O)[C@H]5O)[C@@H](O)[C@H](O)[C@H]4O)cc3O2)cc1OC [Methyl-Hesperidin]
[1]; Well no.=4864, low concentration screen
  remaining activity at 1.25 µM: 98.4%
[2]; Well no.=4864, high concentration screen
  remaining activity at 3.75 µM: 99.3%

## CC[N+](C)(CC)CCOC(=O)C(O)(c1ccccc1)c1ccccc1 [Methylbenactyzium Bromide]
[1]; Well no.=7773, low concentration screen
  remaining activity at 1.25 µM: 101%
[2]; Well no.=7773, high concentration screen
  remaining activity at 3.75 µM: 94.7%

## CNC(=O)OCC[N+](C)(C)C [Methylcarbamylcholine chloride]
[1]; Well no.=1135, low concentration screen
  remaining activity at 1.25 µM: 95.1%
[2]; Well no.=1135, high concentration screen
  remaining activity at 3.75 µM: 96.5%

## C[C@](N)(Cc1ccc(O)c(O)c1)C(=O)O [Methyldopa]
[1]; Well no.=1955, low concentration screen
  remaining activity at 1.25 µM: 92.2%
[2]; Well no.=1955, high concentration screen
  remaining activity at 3.75 µM: 92.5%

## CC[C@@H](CO)NC(=O)[C@@H]1C=C2c3cccc4[nH]cc(c34)C[C@H]2N(C)C1 [Methylergonovine maleate]
[1]; Well no.=1114, low concentration screen
  remaining activity at 1.25 µM: 94.9%
[1]; Well no.=3250, low concentration screen
  remaining activity at 1.25 µM: 98.4%
[2]; Well no.=1114, high concentration screen
  remaining activity at 3.75 µM: 90.6%
[2]; Well no.=3250, high concentration screen
  remaining activity at 3.75 µM: 98%

## CC(C(=O)O)C(=O)O [Methylmalonate]
[1]
  remaining activity at 1.25 µM: 100%
[2]
  remaining activity at 3.75 µM: 95.5%

## C[N@+]1(CC2CC2)CC[C@]23c4c5ccc(O)c4O[C@H]2C(=O)CC[C@@]3(O)[C@H]1C5 [Methylnaltrexone (Bromide)]
[1]; Well no.=8091, low concentration screen
  remaining activity at 1.25 µM: 97.4%
[2]; Well no.=8091, high concentration screen
  remaining activity at 3.75 µM: 102%

## C[C@H]1C[C@@H]2[C@H]([C@@H](O)C[C@@]3(C)[C@H]2CC[C@]3(O)C(=O)CO)[C@@]2(C)C=CC(=O)C=C12 [Methylprednisolone]
[1]; Well no.=1957, low concentration screen
  remaining activity at 1.25 µM: 100%
[1]; Well no.=6179, low concentration screen
  remaining activity at 1.25 µM: 95.4%
[2]; Well no.=1957, high concentration screen
  remaining activity at 3.75 µM: 99.7%
[2]; Well no.=6179, high concentration screen
  remaining activity at 3.75 µM: 95.1%

## Cc1cc(=O)[nH]c(=S)[nH]1 [Methylthiouracil]
[1]; Well no.=4973, low concentration screen
  remaining activity at 1.25 µM: 99.9%
[1]; Well no.=6148, low concentration screen
  remaining activity at 1.25 µM: 98.5%
[2]; Well no.=4973, high concentration screen
  remaining activity at 3.75 µM: 98.5%
[2]; Well no.=6148, high concentration screen
  remaining activity at 3.75 µM: 102%

## CC[C@@H](CO)NC(=O)[C@@H]1C=C2c3cccc4c3c(cn4C)C[C@H]2N(C)C1 [Methysergide maleate]
[1]; Well no.=1087, low concentration screen
  remaining activity at 1.25 µM: 94.2%
[1]; Well no.=2284, low concentration screen
  remaining activity at 1.25 µM: 94.8%
[2]; Well no.=2284, high concentration screen
  remaining activity at 3.75 µM: 90.3%

## COC1=CC(=O)O[C@@H](/C=C/c2ccc3c(c2)OCO3)C1 [Methysticin]
[1]; Well no.=3565, low concentration screen
  remaining activity at 1.25 µM: 105%
[2]; Well no.=3565, high concentration screen
  remaining activity at 3.75 µM: 108%

## CCN(CC)CCNC(=O)c1cc(Cl)c(N)cc1OC [Metoclopramide (hydrochloride hydrate)]
[1]; Well no.=7435, low concentration screen
  remaining activity at 1.25 µM: 106%
[2]; Well no.=7435, high concentration screen
  remaining activity at 3.75 µM: 109%

## CCN(CC)CCNC(=O)c1cc(Cl)c(N)cc1OC [Metoclopramide hydrochloride]
[1]; Well no.=966, low concentration screen
  remaining activity at 1.25 µM: 100%
[2]; Well no.=966, high concentration screen
  remaining activity at 3.75 µM: 103%

## CCN(CC)CCNC(=O)c1cc(Cl)c(N)cc1OC [Metoclopramide]
[1]; Well no.=1696, low concentration screen
  remaining activity at 1.25 µM: 101%
[1]; Well no.=6425, low concentration screen
  remaining activity at 1.25 µM: 99.2%
[2]; Well no.=1696, high concentration screen
  remaining activity at 3.75 µM: 102%
[2]; Well no.=6425, high concentration screen
  remaining activity at 3.75 µM: 95%

## Cc1ccccc1N1C(=O)c2cc(S(N)(=O)=O)c(Cl)cc2NC1C (stereo not drawn) [Metolazone]
[1]; Well no.=943, low concentration screen
  remaining activity at 1.25 µM: 102%
[1]; Well no.=8212, low concentration screen
  remaining activity at 1.25 µM: 94.6%
[2]; Well no.=943, high concentration screen
  remaining activity at 3.75 µM: 95.6%
[2]; Well no.=8212, high concentration screen
  remaining activity at 3.75 µM: 90.4%

## COCCc1ccc(OCC(O)CNC(C)C)cc1 (stereo not drawn) [Metoprolol (Succinate)]
[1]; Well no.=7475, low concentration screen
  remaining activity at 1.25 µM: 94.3%
[2]; Well no.=7475, high concentration screen
  remaining activity at 3.75 µM: 95.9%

## COCCc1ccc(OCC(O)CNC(C)C)cc1 (stereo not drawn) [Metoprolol]
[1]; Well no.=1959, low concentration screen
  remaining activity at 1.25 µM: 102%
[2]; Well no.=1959, high concentration screen
  remaining activity at 3.75 µM: 102%

## Cc1ccccc1/C=C/C1=NCCN1 [Metrazoline oxalate]
[1]; Well no.=1074, low concentration screen
  remaining activity at 1.25 µM: 88.9%
[2]; Well no.=1074, high concentration screen
  remaining activity at 3.75 µM: 89.7%

## Cc1ccccc1CNc1ncnc2c1ncn2[C@@H]1O[C@H](CO)[C@@H](O)[C@H]1O [Metrifudil]
[1]; Well no.=851, low concentration screen
  remaining activity at 1.25 µM: 95.7%
[2]; Well no.=851, high concentration screen
  remaining activity at 3.75 µM: 96.8%

## Cc1ncc([N+](=O)[O-])n1CCO [Metronidazole]
[1]; Well no.=1963, low concentration screen
  remaining activity at 1.25 µM: 99.6%
[2]; Well no.=1963, high concentration screen
  remaining activity at 3.75 µM: 99.9%

## CC[C@H](C)C(=O)O[C@H]1CCC=C2C=C[C@H](C)[C@H](CC[C@@H]3C[C@@H](O)CC(=O)O3)[C@H]21 [Mevastatin]
[1]; Well no.=922, low concentration screen
  remaining activity at 1.25 µM: 105%
[1]; Well no.=1618, low concentration screen
  remaining activity at 1.25 µM: 102%
[1]; Well no.=3381, low concentration screen
  remaining activity at 1.25 µM: 90.7%
[2]; Well no.=922, high concentration screen
  remaining activity at 3.75 µM: 104%
[2]; Well no.=1618, high concentration screen
  remaining activity at 3.75 µM: 103%
[2]; Well no.=3381, high concentration screen
  remaining activity at 3.75 µM: 91.3%

## Cc1cccc(C)c1OCC(C)N (stereo not drawn) [Mexiletene hydrochloride]
[1]; Well no.=1066, low concentration screen
  remaining activity at 1.25 µM: 102%
[2]; Well no.=1066, high concentration screen
  remaining activity at 3.75 µM: 99.6%

## CC1(C)S[C@@H]2[C@H](NC(=O)[C@H](NC(=O)N3CCN(S(C)(=O)=O)C3=O)c3ccccc3)C(=O)N2[C@H]1C(=O)O [Mezlocillin (sodium)]
[1]; Well no.=7790, low concentration screen
  remaining activity at 1.25 µM: 99.7%
[2]; Well no.=7790, high concentration screen
  remaining activity at 3.75 µM: 102%
